In patent US7923984B2, “Universal, wireless, nano-optical voltmeters” (The Regents of the University Of Michigan, priority 2007, dated 2011):
Counter-ions that a name gives are not always drawn.

Tests used:
[1] = system: mitochondrial membrane E field in DITNC astrocytes; assay: Sequential CCCP depolarizations in astrocytes monitored by NOVs; assay type: cell-based; details: 5 μM CCCP, second dose at 46 minutes
Method: Repeat depolarizations were performed as follows. Astrocytes were prepared as above, but the cell chamber only contained 500 μL of HBSS with HEPES. 500 μL CCCP (5 μM final concentration in chamber) was added and images were collected every minute for the first 10 minutes after the addition of CCCP and every 5 minutes thereafter until the 45 minute time point. Then 500 μL of the CCCP solution was added at the 46 minute time point, and the images taken every minute until the 55 minute time point and every five minutes until the 90 minute time point.
(§1) Image analysis was performed as follows. Images were transferred to the MetaMorph image analysis package and regions of interest chosen consistent with TMRM-induced mitochondrial fluorescence, or the autofluorescent mitochondria of the astrocytes. In some cases, the images were expanded and regions of interest (ROI) were also chosen from the surrounding cytosol. The average pixel intensity ratio of the 600 nm image versus the 700 nm image was then calculated. For the TMRM channel, the average pixel intensity was recorded.
Sequential depolarizations were performed as follows. Astrocytes with autofluorescent mitochondria (to eliminate the need for TMRM) were incubated with NOVs, transferred to a confocal microscope, and the mitochondrial membrane depolarized with the use of CCCP. […]

[2] = system: mitochondrial membrane E field in DITNC astrocytes; assay: Repeated CCCP depolarizations in astrocytes measured by E-PEBBLEs; assay type: cell-based, rat; details: 3.1 μM at 3 min 50 s, second dose at 33 min 50 s; 600:700 nm ratio
Method: Repeated depolarizations of mitochondrial membrane potentials were performed as follows. Astrocytes were prepared as described above. Z series of Images were taken every minute for 15 minutes and every 5 minutes thereafter for 30 minutes. At time 3 minutes 50 sec, 1 μL of a CCCP solution (3.1 mM dissolved in DMSO and HBSS with HEPES; concentration in chamber was 3.1 μM) was added to the chamber. Starting at the 30 minute time point, images were again taken every minute until the 45 minute time point and every five minutes thereafter until the 60 minute time point. At time 33 minutes 50 seconds, a second dose of CCCP (3.1 mM) was added. The final concentration in the cell chamber for CCCP was 6.1 μM.
(§2) Cellular image analysis was performed as follows. Images of specific focal planes were transferred to the MetaMorph image analysis package and regions of interest (ROI) chosen consistent with TMRM-induced mitochondrial fluorescence, or the autofluorescent mitochondria of the astrocytes. In some cases, the images were expanded and regions of interest were also chosen from the surrounding cytosol. The average pixel intensity was determined for each ROI, and the emission ratio of the 525:700 nm images was then calculated. In some cases, the emission ratio of 600:700 nm was calculated. […] For the TMRM channel, the average pixel intensity was recorded. […]

[3] = system: mitochondrial membrane E field in DITNC astrocytes; assay: CCCP challenge of mitochondrial membrane E field in DITNC astrocytes measured by E-PEBBLEs; assay type: cell-based, rat; details: CCCP 12.2 μM added at 3 min 40 s
Method: Mitochondrial membrane and cytosol potentials were measured as follows. Immortalized rat (DITNC) astrocytes with autoflourescent mitochondria (American Type Culture Collection, Manassas, Va.) were plated on to glass cover slips at a concentration of ˜2×10^5 cells/mL. Cells were incubated in Dulbecco's Modified Eagle Medium (DMEM) supplemented with 10% fetal bovine serum and 1% penicillin/streptomycin (Invitrogen, Carlsbad, Calif.) overnight. The media was then removed and replaced with fresh media. […] The cover slip was rinsed with Hank's Balanced Salt Solution (HBSS) (Invitrogen, Carlsbad, Calif.) containing 10 mmol N-2-Hydroxyethylpiperazine-N′-2-Ethane Sulfonic Acid (HEPES) and placed in a stainless steel cell chamber with 1 mL HBSS containing 10 mmol HEPES. In some cases, tetramethylrhodamine methyl ester (TMRM) (Molecular Probes, Eugene, Oreg.) dissolved in dimethyl sulfoxide (DMSO) was added to the chamber for a total concentration of ˜50 nM to confirm mitochondrial fluorescence.
The entire chamber was mounted on a confocal microscope at room temperature (Olympus IX70 connected to a Life Science Resources UltraView equipped with an Ar—Kr laser and a Lambda 10-2 Sutter wheel from Sutter Instrument Co. Novato, Calif.) and examined with a 60× objective connected to a Z series motor. Four Z stacks were taken 1 minute apart, starting with time zero. […] Slices analyzed were ˜3-4 microns into the cell as measured from the bottom of the cell. […]
as §2, with “In some cases, the images were expanded and regions of interest were also chosen from the surrounding cytosol.” left out

[4] = system: astrocytes, mitochondrial and microfilament regions; assay: CCCP challenge of mitochondrial and microfilament regions in astrocytes; assay type: cell-based; details: CCCP at 3 min 45 sec
Method: Microfilaments in astrocytes. Astrocytes were co-incubated with E-PEBBLEs and alexafluor-phalloidin (a microfilament stain). The fluorescence arising from the mitochondria, E-PEBBLEs, and microfilaments were able to be resolved though use of different fluorescent emission filters.
The cells were challenged with CCCP at 3 min 45 sec using normal experimental parameters, as described in Example 7.

[5] = system: mitochondrial membrane E field in C6 glioma cells; assay: CCCP depolarization of mitochondria in C6 gliomas monitored by NOV; assay type: cell-based, Mouse; details: CCCP total concentration 10 μM
Method: Depolarization, comparison with TMRM, and cytosol measurements were performed as follows. Mouse C6 glioma cells were plated on to glass cover slips at a concentration of approximately 2.5×10^5 cells/mL. Cells were incubated in DMEM supplemented with 10% FBS and 1% p/s overnight. The media was then removed and replaced with fresh media. NOVs were added to the suspension (125-250 μg particles) and the cells incubated for 30 minutes. The cover slip was rinsed with HBSS containing 10 mmol N-2-Hydroxyethylpiperazine-N′-2-Ethane Sulfonic Acid (HEPES) and placed in a stainless steel cell chamber with 1 mL HBSS containing 10 mmol HEPES. […]
as §1, with “In some cases, the images were expanded and regions of interest (ROI) were also chosen from the surrounding cytosol.” left out
CCCP depolarization was performed as follows. […] A region of interest was first determined in Metamorph by the punctuated bright areas that indicated mitochondria through TMRM localization. The emission ratio was then determined at the measurement time points. […]

DITNC astrocytes = assay: Uptake, localization and tolerability of E-PEBBLEs in astrocytes; assay type: cell-based, rat; details: same final dye concentration as delivered in the E-PEBBLEs
Source text: Cells were illuminated at 488 nm and the fluorescent images were collected at 600 nm (50 nm band pass), 700 nm (50 nm band pass), and 525 nm (50 nm band pass).
Cell groups that appeared visually robust (i.e., elongate with little or no ruffling or blebbing of the membrane) were used for analysis.

C6 glioma cells = assay: Localization, uptake and cytotoxicity of particles in C6 glioma cells; assay type: cell-based, Rat; details: same final dye concentration as delivered in the NOV
Method: Mouse C6 glioma cells were plated on to glass cover slips at a concentration of approximately 2.5×10^5 cells/mL. Cells were incubated in DMEM supplemented with 10% FBS and 1% p/s overnight. The media was then removed and replaced with fresh media. NOVs were added to the suspension (125-250 μg particles) and the cells incubated for 30 minutes. The cover slip was rinsed with HBSS containing 10 mmol N-2-Hydroxyethylpiperazine-N′-2-Ethane Sulfonic Acid (HEPES) and placed in a stainless steel cell chamber with 1 mL HBSS containing 10 mmol HEPES. In some cases TMRM dissolved in dimethyl sulfoxide was added to the chamber for a total concentration of 50 nM and the chamber was allowed to equilibrate for 10 minutes. The entire chamber was mounted on the confocal microscope and examined with a 60× objective connected to a Z series motor. One mL of a CCCP solution (total concentration 10 μM and, in some cases, containing 50 nM TMRM) was added to the cell chamber and a timer started. A series of images (1 to 2 μm in thickness) was taken in the vertical plane 15 seconds after addition of the CCCP solution, and then every minute for the first 10 minutes. Images were taken at 5 minute intervals thereafter until the 30 minute time point. Cells were illuminated at 488 nm and the fluorescent images were collected at 600 nm (50 nm band pass) and 700 nm (50 nm band pass) for the first two channels. […]

SMILES	change of mitochondrial E field after CCCP [1]	change of mitochondrial E field after repeated CCCP doses [2]	drop in E field from minute 3 to minute 4 [3]	mitochondrial E field at t=4 min after CCCP [3]	overall drop in E field from t=0 min to t=30 min [3]	response of microfilament regions to CCCP [4]	response of mitochondrial regions to CCCP [4]	time for mitochondrial E field to approach zero after addition of CCCP [5]	fluorescence of cells exposed to free dye in an aqueous solution (uptake) (DITNC astrocytes)	fluorescence of cells exposed to free dye in water (uptake) (C6 glioma cells)
N#CC(C#N)=NNc1cccc(Cl)c1 [CCCP, Carbonyl cyanide 3-chlorophenylhydrazone]	decrease in the E field during the first 10 minutes	the E field rapidly decreases, followed by a modest repolarization	55%	−1.4×10^6 V/m	55%	spike at the 10-15 minute time point	normal depolarization	approximately 10 minutes		
CCCCN(CCCC)c1ccc2cc(C=Cc3cc[n+](CCCS(=O)(=O)[O-])cc3)ccc2c1 [free dye, pyridinium, 4-(2-(6-(dibutylamino)-2-naphthalenyl)ethenyl)-1-(3-sulfopropyl)-, hydroxide, inner salt]									did not fluoresce	did not fluoresce
